Patent publication US12416008B2, “Compositions and methods of use for small-molecule regulation of CRISPR-Cas9 activity using RNA aptamers” (priority 2019, dated 2025)

Tested on: galK 1 site
Assay: red/white colony screen of editing efficiency at the galK 1 site (CREATE recombineering)
Type: cell-based, E. coli MG1655
Conditions: for Editing Efficiency 1 mM Theo: induced for 3 hours with 1 mM theophylline; for Editing Efficiency no Theo: no theophylline, 3 hours recovery
Method: Candidates from this enriched library were analyzed to inform an improved library design. After three selection/counterselection steps, cells were plated on M63 selection medium^20 and 150 colonies were picked. Each isolated candidate was then transformed into unedited E. coli to screen for theophylline-responsive constructs using a red/white colony assay to quantify the percentage of edited bacteria. Colonies with an unedited galK site appear red whereas edited colonies appear white (FIG. 5). The percentage of white colonies is considered the editing efficiency. Gene editing was induced as previously described with or without adding theophylline and the editing efficiencies were compared.
The protocol established by Garst et al was mainly followed. LB containing kanamycin and chloramphenicol was inoculated with MGλ9 cells and grown overnight at 30° C. The stationary culture was diluted 100 fold in LB, containing chloramphenicol, kanamycin and 0.2% arabinose and grown to an OD600=0.4-0.6 in 25 mL LB. The culture was heat-shocked in a shaking waterbath at 42° C. for 15 minutes to induce expression of the lambda-red proteins from pSIM5. Then, the culture was washed in two volumes of ice-cold deionized water, resuspended in 500 μl deionized water and 50 μl of the cell suspension was electroporated with 200 ng of a CREATE plasmid that encodes gRNA and homology template. The transformants were recovered in 4 mL of LB, containing 0.2% arabinose and optionally 1 mM theophylline or 1 μM anhydrotetracycline (ATC), and shaken at 37° C. for 3 hours before plating on MacConkey Agar. To estimate the number of cfu, aliquots were plated on LB agar 1 hour after transformation.
In order to assess the frequency of gene editing, a red/white screen was used to visualize the introduction of a stop codon into the galK gene by CREATE. The original CREATE protocol was used for inducing gene editing and after 3 hours of recovery (with or without the agRNA ligand) a series of dilutions of the cultures were plated on MacConkey Agar plates containing 1% galactose. Bacterial colonies with a mutated galK* site appear white on the plates, whereas non-edited colonies appear red. The editing efficiency could be calculated by dividing the number of edited colonies over the total number of colonies. By comparing the editing efficiency in presence versus absence of the ligand, a dynamic range of the in vivo activity could be determined.
When screening the enriched libraries for switchable constructs, the transformants were recovered in 4 mL of LB broth, a dilution series was plated for every construct and the experiment was only carried out once due to the large volume of colonies screened (˜250 in total). When the constructs A9 and GU19 were characterized in detail, triplica of the experiment were carried out.

Row | Substance | gene editing activity and ligand dependence (in words) (with and without aptamer ligand) | Editing Efficiency 1 mM Theo | Editing Efficiency no Theo
1 | 3-methylxanthine aptamer: theophylline aptamer domain with C22A point mutation at the ligand-binding site; SEQ ID NO: 96 (AUACCAGCUUCGAAAGAAGCCAUUGGCAG; listed as RNA, chemistry not fully specified) | not activatable by theophylline | – | –
2 | A8: agRNA cassette CGGGGGACAATAGG, SEQ ID NO: 12 (expressed or natural sequence) | – | 82% | 2%
3 | A10: agRNA cassette GATGGGCCTCCACC, SEQ ID NO: 9 (expressed or natural sequence) | – | 14% | 0%
4 | A14: agRNA cassette GGAGGTACGGTGCC, SEQ ID NO: 10 (expressed or natural sequence) | – | 87% | 2%
5 | A26: agRNA cassette GGGGGGCCACGCGC, SEQ ID NO: 13 (expressed or natural sequence) | – | 89% | 5%
6 | A34: agRNA cassette TAGTTTAAACCGTT, SEQ ID NO: 7 (expressed or natural sequence) | – | 57% | 12%
7 | AU1: agRNA cassette AGGGGGCCTATAAT, SEQ ID NO: 15 (expressed or natural sequence) | – | 2% | 0%
8 | AU2: agRNA cassette ACCAGGCCAAGTAT, SEQ ID NO: 16 (expressed or natural sequence) | – | 4% | 0%
9 | AU3: agRNA cassette ACAAGGCCCATAAT, SEQ ID NO: 17 (expressed or natural sequence) | – | 72% | 1%
10 | AU4: agRNA cassette AACAGGCCTTAATT, SEQ ID NO: 18 (expressed or natural sequence) | – | 0% | 0%
11 | AU5: agRNA cassette ACTCGGCCTGAACT, SEQ ID NO: 19 (chemistry not given here) | – | 43% | 0%
12 | AU6: agRNA cassette AAGGGGCCTATAAT, SEQ ID NO: 20 (expressed or natural sequence) | – | 77% | 5%
13 | AU7: agRNA cassette AGTAGGCCTTTCAT, SEQ ID NO: 21 (expressed or natural sequence) | – | 58% | 0%
14 | AU8: agRNA cassette ACGGGGCCTAATAT, SEQ ID NO: 22 (expressed or natural sequence) | – | 48% | 0.3%
15 | AU9: agRNA cassette AAACGGCCCACTGT, SEQ ID NO: 23 (expressed or natural sequence) | – | 22% | 1%
16 | AU10: agRNA cassette ATAGGGCCATCCAT, SEQ ID NO: 24 (expressed or natural sequence) | – | 13% | 0%
17 | AU11: agRNA cassette AATAGGCCACTTAT, SEQ ID NO: 25 (expressed or natural sequence) | – | 25% | 0%
18 | AU12: agRNA cassette AGAGGGCCGGGCGT, SEQ ID NO: 26 (expressed or natural sequence) | – | 26% | 0%
19 | AU14: agRNA cassette AGTGGGCCAGCCTT, SEQ ID NO: 27 (expressed or natural sequence) | – | 17% | 0%
20 | AU15: agRNA cassette ACCCGGCCATTCAT, SEQ ID NO: 28 (expressed or natural sequence) | – | 5% | 0%
21 | AU16: agRNA cassette AACCGGCCCCGAGT, SEQ ID NO: 29 (expressed or natural sequence) | – | 6% | 0%
22 | AU17: agRNA cassette AAAGGGCCAGGCAT, SEQ ID NO: 30 (expressed or natural sequence) | – | 4% | 0%

Row | Substance | gene editing activity and ligand dependence (in words) (with and without aptamer ligand) | Editing Efficiency 1 mM Theo | Editing Efficiency no Theo
23 | AU18: agRNA cassette AATAGGCCCAGACT, SEQ ID NO: 31 (expressed or natural sequence) | – | 7% | 0%
24 | AU19: agRNA cassette AATAGGCCCGCAGT, SEQ ID NO: 32 (expressed or natural sequence) | – | 10% | 0%
25 | AU20: agRNA cassette AAATGGCCGGCAAT, SEQ ID NO: 33 (expressed or natural sequence) | – | 0% | 0%
26 | C2A2: agRNA cassette TAGTGGCTACCATG, SEQ ID NO: 14 (expressed or natural sequence) | – | 84% | 5%
27 | G1B1: agRNA, 2×4 IL and upper stem cassette GTATCGCTTAAGCC, SEQ ID NO: 2 (expressed or natural sequence) | – | 59% | 1%
28 | GC1: agRNA cassette GCTGGGCCCTTCCC, SEQ ID NO: 52 (expressed or natural sequence) | – | 0% | 0%
29 | GC2: agRNA cassette GTCAGGCCTATACC, SEQ ID NO: 53 (expressed or natural sequence) | – | 0% | 0%
30 | GC3: agRNA cassette GTCCGGCCCCACAC, SEQ ID NO: 54 (expressed or natural sequence) | – | 12% | 0%
31 | GC4: agRNA cassette GGTCGGCCAGTAGC, SEQ ID NO: 55 (expressed or natural sequence) | – | 1% | 0%
32 | GC5: agRNA cassette GTTGGGCCGCGGAC, SEQ ID NO: 56 (expressed or natural sequence) | – | 0% | 0%
33 | GC6: agRNA cassette GATTGGCCAGCAAC, SEQ ID NO: 57 (expressed or natural sequence) | – | 40% | 1%
34 | GC7: agRNA cassette GGGGGGCCGAATAC, SEQ ID NO: 58 (expressed or natural sequence) | – | 71% | 1%
35 | GC8: agRNA cassette GGACGGCCCTGTGC, SEQ ID NO: 59 (expressed or natural sequence) | – | 0% | 1%
36 | GC9: agRNA cassette GCAGGGCCTCTAAC, SEQ ID NO: 60 (expressed or natural sequence) | – | 0% | 0%
37 | GC10: agRNA cassette GAGCGGCCACAACC, SEQ ID NO: 61 (expressed or natural sequence) | – | 0% | 0%
38 | GC11: agRNA cassette GCGTGGCCCTTCCC, SEQ ID NO: 62 (chemistry not given here) | – | 3% | 0%
39 | GC12: agRNA cassette GATAGGCCAGTTAC, SEQ ID NO: 63 (expressed or natural sequence) | – | 36% | 1%
40 | GC13: agRNA cassette GGAAGGCCTTATAC, SEQ ID NO: 64 (expressed or natural sequence) | – | 64% | 0%
41 | GC15: agRNA cassette GCATGGCCTACTCC, SEQ ID NO: 65 (expressed or natural sequence) | – | 21% | 1%
42 | GC16: agRNA cassette GATAGGCCAACACC, SEQ ID NO: 66 (expressed or natural sequence) | – | 65% | 1%
43 | GC17: agRNA cassette GACCGGCCCCCCGC, SEQ ID NO: 67 (expressed or natural sequence) | – | 2% | 0%
